The record followed here is ChEMBL document CHEMBL1154022, “Efficient synthesis of 3,3-diheteroaromatic oxindole analogues and their in vitro evaluation for spermicidal potential” (Bioorg Med Chem Lett, 2009).

A short description of series [1]: Toxicity against rabbit erythrocytes assessed as hemolytic index. It is filed as cell-based, Oryctolagus cuniculus. The note with it: erythrocyte.
The test system of a further series is Spermatozoa. Kind of series: Spermicidal activity in rat spermatozoa assessed as […]. It is filed as functional. As to conditions: read-out: MEC.

For the compound `COc1ccc2[nH]cc(C3(c4c[nH]c5ccc(OC)cc45)C(=O)Nc4ccccc43)c2c1`, in series [1], the Activity worked out at 3.3 mg/mL. Also, in the series on Spermatozoa, the minimal effective concentration came to 340 µg/mL.

Turning to `Cc1c(C2(c3[nH]c4ccccc4c3C)C(=O)Nc3ccccc32)[nH]c2ccccc12`, the minimal effective concentration in the series with Spermatozoa worked out at 1000 µg/mL.

In the case of `O=C1Nc2ccccc2C1(c1c[nH]c2ccc(Br)cc12)c1c[nH]c2ccc(Br)cc12`, the minimal effective concentration with Spermatozoa amounted to 3180 µg/mL.

`O=C1Nc2ccccc2C1(c1c[nH]c2ccccc12)c1c[nH]c2ccccc12`: the minimal effective concentration with Spermatozoa was found to be 2400 µg/mL.

`O=C(O)Cc1c(C2(c3[nH]c4ccccc4c3CC(=O)O)C(=O)Nc3ccccc32)[nH]c2ccccc12`: the minimal effective concentration with Spermatozoa worked out at 530 µg/mL.

With `Cc1[nH]c2ccccc2c1C1(c2c(C)[nH]c3ccccc23)C(=O)Nc2ccccc21`, in the series on Spermatozoa, the minimal effective concentration turned out to be 2820 µg/mL.

Turning to `O=C(O)c1[nH]c2ccccc2c1C1(c2c(C(=O)O)[nH]c3ccccc23)C(=O)Nc2ccccc21`, the minimal effective concentration in the series on Spermatozoa stood at 1110 µg/mL.

As to `Cn1cc(C2(c3cn(C)c4ccccc34)C(=O)Nc3ccccc32)c2ccccc21`, in the series with Spermatozoa, the minimal effective concentration stood at 2360 µg/mL.

For the compound `O=C1Nc2ccccc2C1(c1ccc[nH]1)c1ccc[nH]1`, the minimal effective concentration in the series with Spermatozoa is 3150 µg/mL.

As to `CCCCCCCCCc1ccc(OCCOCCOCCOCCOCCOCCOCCOCCOCCO)cc1` [NONOXYNOL 9], the minimal effective concentration in the series with Spermatozoa is 500 µg/mL.
